In ChEMBL document CHEMBL1201862, “PubChem BioAssay data set” (2004):
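48-hour exposure; five concentrations; linearly interpolated endpoints. GI50 is the concentration that inhibits growth by half.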 Calls of active or inactive are those of the source. Rule as the data show it: active = GI50 up to about 1.1 µM and inactive = higher.

Assays:
Experiment in all cases: growth of human tumour cells (NCI), 48 h
EKVX = test system: EKVX
HL-60 = test system: HL-60
KM12 = test system: KM12
M14 = test system: M14
NCI-H23 = test system: NCI-H23
NCI-H522 = test system: NCI-H522
OVCAR-3 = test system: OVCAR-3
SF-268 = test system: SF-268
SF-295 = test system: SF-295
SF-539 = test system: SF-539
SK-MEL-5 = test system: SK-MEL-5
SN12C = test system: SN12C
SNB-19 = test system: SNB-19
TK-10 = test system: TK-10
UACC-257 = test system: UACC-257
UACC-62 = test system: UACC-62
UO-31 = test system: UO-31
HCC 2998 = test system: HCC 2998
SR = test system: SR

Measured: GI50

CCN(CC)c1ccc(C(=O)c2ccccc2C(=O)O)c(O)c1
inactive: EKVX > 100 µM | HL-60 > 100 µM | KM12 > 100 µM | M14 > 100 µM | NCI-H23 > 100 µM | NCI-H522 42.9 µM | OVCAR-3 > 100 µM | SF-268 > 100 µM | SF-295 > 100 µM | SF-539 > 100 µM | SK-MEL-5 > 100 µM | SN12C > 100 µM | SNB-19 > 100 µM | TK-10 > 100 µM | UACC-257 > 100 µM | UACC-62 > 100 µM | UO-31 > 100 µM

C/C(CCc1ccccc1)=N\NC(N)=S
inactive: EKVX 72.4 µM | HCC 2998 > 100 µM | HL-60 > 100 µM | KM12 > 100 µM | M14 > 100 µM | NCI-H23 > 100 µM | OVCAR-3 > 100 µM | SF-268 > 100 µM | SF-295 > 100 µM | SF-539 37.2 µM | SK-MEL-5 95.3 µM | SN12C > 100 µM | SR 75.2 µM | TK-10 > 100 µM | UACC-257 > 100 µM | UACC-62 > 100 µM | UO-31 > 100 µM

CCCCOC(=O)CNC(=O)OCCCCC#CC#CCCCCOC(=O)NCC(=O)OCCCC
inactive: EKVX > 100 µM | HCC 2998 > 100 µM | HL-60 > 100 µM | KM12 > 100 µM | M14 > 100 µM | NCI-H23 > 100 µM | NCI-H522 76.7 µM | SF-268 > 100 µM | SF-295 > 100 µM | SF-539 > 100 µM | SK-MEL-5 > 100 µM | SN12C > 100 µM | SNB-19 > 100 µM | SR > 100 µM | TK-10 > 100 µM | UACC-257 > 100 µM | UACC-62 > 100 µM | UO-31 > 100 µM

CCOc1ccccc1NC(=O)CCC(=O)OC
inactive: EKVX > 100 µM | HCC 2998 > 100 µM | HL-60 > 51.8 µM | KM12 > 100 µM | M14 > 100 µM | NCI-H23 > 100 µM | NCI-H522 > 100 µM | OVCAR-3 > 100 µM | SF-268 > 100 µM | SF-295 > 100 µM | SK-MEL-5 > 100 µM | SN12C > 100 µM | SNB-19 > 100 µM | SR > 47 µM | TK-10 > 100 µM | UACC-257 > 100 µM | UACC-62 > 100 µM | UO-31 > 100 µM

O=C(Nc1ccc(Cl)c(Cl)c1)C(=O)C(C(=O)c1ccccc1-c1ccccc1)C1OC(=O)c2ccccc21 (centres undefined)
inactive: EKVX 20.8 µM | HCC 2998 14.5 µM | HL-60 10.9 µM | KM12 14.7 µM | M14 14.7 µM | NCI-H23 10.6 µM | NCI-H522 6.56 µM | OVCAR-3 13.1 µM | SF-268 15.8 µM | SF-295 17.1 µM | SF-539 10.1 µM | SK-MEL-5 15.1 µM | TK-10 23.6 µM | UACC-257 18.9 µM | UACC-62 15.8 µM | UO-31 15.6 µM

C#Cc1cc(CN(CC(=O)OC(C)(C)C)CC(=O)OC(C)(C)C)nc(CN(CC(=O)OC(C)(C)C)CC(=O)OC(C)(C)C)c1
inactive: EKVX 11.9 µM | HCC 2998 4.31 µM | HL-60 2.98 µM | KM12 3.72 µM | M14 5.89 µM | NCI-H23 4.74 µM | NCI-H522 2.01 µM | OVCAR-3 3.04 µM | SF-268 4.8 µM | SF-295 4.39 µM | SF-539 15.2 µM | SK-MEL-5 3.59 µM | SN12C 6.75 µM | SNB-19 2.74 µM | TK-10 17.3 µM | UACC-257 2.82 µM | UACC-62 4.26 µM | UO-31 3.71 µM

O=C1[C@@H]2C(c3ccc(Cl)cc3Cl)=NO[C@@H]2C(=O)N1c1ccc(Cc2ccc(N3C(=O)[C@H]4C(c5ccc(Cl)cc5Cl)=NO[C@H]4C3=O)cc2)cc1
inactive: EKVX > 100 µM | HCC 2998 > 100 µM | HL-60 11.4 µM | KM12 > 100 µM | M14 37.7 µM | NCI-H23 > 100 µM | OVCAR-3 61 µM | SF-268 > 100 µM | SF-295 74 µM | SF-539 52.7 µM | SK-MEL-5 52.1 µM | SN12C 54 µM | TK-10 51.8 µM | UACC-257 41.6 µM | UACC-62 71.6 µM | UO-31 > 100 µM

C/C(CC(=O)Nc1cccc(Cl)c1C)=N\NC(N)=S
inactive: EKVX > 100 µM | HCC 2998 > 100 µM | HL-60 > 100 µM | KM12 > 100 µM | M14 > 100 µM | NCI-H23 > 100 µM | NCI-H522 39.6 µM | OVCAR-3 > 100 µM | SF-268 > 100 µM | SF-295 > 100 µM | SF-539 > 100 µM | SK-MEL-5 > 100 µM | TK-10 > 100 µM | UACC-257 > 100 µM | UACC-62 > 100 µM | UO-31 > 100 µM

Cc1cc2c(c3c1c1ccccc1n3C)C(=O)c1ccccc1C2=O
inactive: EKVX > 100 µM | HCC 2998 > 100 µM | HL-60 39.3 µM | KM12 > 100 µM | M14 > 100 µM | NCI-H23 48.5 µM | NCI-H522 75.3 µM | OVCAR-3 > 100 µM | SF-268 > 100 µM | SF-295 > 100 µM | SF-539 > 100 µM | SK-MEL-5 > 100 µM | SN12C > 100 µM | SNB-19 > 100 µM | TK-10 > 100 µM | UACC-257 > 100 µM | UACC-62 > 100 µM | UO-31 > 100 µM

CC1=NN(C(=O)c2ccc(Cl)cc2)C(=O)/C1=C/c1ccco1
inactive: EKVX > 100 µM | HCC 2998 > 100 µM | HL-60 > 100 µM | KM12 > 100 µM | M14 > 100 µM | NCI-H23 > 100 µM | NCI-H522 > 100 µM | OVCAR-3 > 100 µM | SF-268 > 100 µM | SF-295 > 100 µM | SF-539 > 100 µM | SK-MEL-5 > 100 µM | SN12C > 100 µM | SNB-19 > 100 µM | TK-10 > 100 µM | UACC-257 > 100 µM | UACC-62 > 100 µM | UO-31 > 100 µM

Cc1ccccc1CN1CC=c2ccccc2=N1
inactive: EKVX 93.5 µM | HCC 2998 > 100 µM | KM12 > 100 µM | M14 > 100 µM | NCI-H23 > 100 µM | OVCAR-3 > 100 µM | SF-268 > 100 µM | SF-295 > 100 µM | SF-539 > 100 µM | SK-MEL-5 97.9 µM | SN12C > 100 µM | SNB-19 > 100 µM | TK-10 > 100 µM | UACC-257 > 100 µM | UACC-62 > 100 µM | UO-31 50.1 µM

CC(C)(C)N/N=N/c1cn(C2OC(CO)C(O)C2O)c(=O)[nH]c1=O (centres undefined)
inactive: EKVX > 100 µM | HCC 2998 > 100 µM | HL-60 50.9 µM | KM12 > 100 µM | M14 > 100 µM | NCI-H23 > 100 µM | NCI-H522 > 100 µM | OVCAR-3 > 100 µM | SF-268 > 100 µM | SF-295 > 100 µM | SK-MEL-5 > 100 µM | SN12C > 100 µM | SNB-19 > 100 µM | SR 20.8 µM | TK-10 > 100 µM | UACC-257 > 100 µM | UACC-62 > 100 µM | UO-31 > 100 µM

CCCCCCCCCCCCCS(=O)(=O)O
inactive: EKVX > 100 µM | HCC 2998 > 100 µM | HL-60 > 100 µM | KM12 > 100 µM | M14 > 100 µM | NCI-H23 > 100 µM | NCI-H522 > 100 µM | OVCAR-3 > 100 µM | SF-268 > 100 µM | SF-295 > 100 µM | SF-539 > 100 µM | SK-MEL-5 > 100 µM | SN12C > 100 µM | SNB-19 > 100 µM | TK-10 > 100 µM | UACC-257 > 100 µM | UACC-62 > 100 µM | UO-31 > 100 µM

CN1CCS(=O)(=O)NC(Cc2ccccc2)C(=O)N2CCCC2C1=O (centres undefined)
inactive: EKVX > 100 µM | HCC 2998 > 100 µM | HL-60 > 100 µM | KM12 > 100 µM | NCI-H23 > 100 µM | NCI-H522 > 100 µM | OVCAR-3 > 100 µM | SF-268 > 100 µM | SF-295 > 100 µM | SF-539 > 100 µM | SK-MEL-5 > 100 µM | SN12C > 100 µM | SNB-19 > 100 µM | TK-10 > 100 µM | UACC-257 > 100 µM | UACC-62 > 100 µM | UO-31 > 100 µM

CC1C[C@H](OC(N)=O)C(C)CC1=O (some centres undefined)
inactive: EKVX > 100 µM | HCC 2998 > 100 µM | HL-60 > 100 µM | KM12 > 100 µM | M14 > 100 µM | NCI-H23 > 100 µM | OVCAR-3 > 100 µM | SF-268 > 100 µM | SF-295 > 100 µM | SF-539 > 100 µM | SK-MEL-5 > 100 µM | SN12C > 100 µM | SNB-19 > 100 µM | TK-10 > 100 µM | UACC-257 > 100 µM | UACC-62 > 100 µM | UO-31 > 100 µM

COc1cc(CCc2ccc(OC(C)=O)cc2)cc(OC)c1OC
inactive: EKVX > 100 µM | HL-60 > 100 µM | KM12 > 100 µM | M14 > 100 µM | NCI-H522 52 µM | OVCAR-3 > 100 µM | SF-268 > 100 µM | SF-295 > 100 µM | SF-539 > 100 µM | SK-MEL-5 > 100 µM | SN12C > 100 µM | SNB-19 > 100 µM | TK-10 > 100 µM | UACC-257 > 100 µM | UACC-62 > 100 µM | UO-31 73.3 µM
